Measurements: article PMC9612005 (Pharmaceutics, 2022)
Where two headings read alike, the source gives them in different places.

Target: T1, cone CNG channels (CNGA3:CNGB3) (Homo sapiens, UniProt Q16281+Q9NQW8)
T1 construct: expressed in transfected cells; host or cells: Xenopus laevis oocytes (cRNA injection, pGEMHE vector); inside-out patches
T1 sequence (Q16281 1-694): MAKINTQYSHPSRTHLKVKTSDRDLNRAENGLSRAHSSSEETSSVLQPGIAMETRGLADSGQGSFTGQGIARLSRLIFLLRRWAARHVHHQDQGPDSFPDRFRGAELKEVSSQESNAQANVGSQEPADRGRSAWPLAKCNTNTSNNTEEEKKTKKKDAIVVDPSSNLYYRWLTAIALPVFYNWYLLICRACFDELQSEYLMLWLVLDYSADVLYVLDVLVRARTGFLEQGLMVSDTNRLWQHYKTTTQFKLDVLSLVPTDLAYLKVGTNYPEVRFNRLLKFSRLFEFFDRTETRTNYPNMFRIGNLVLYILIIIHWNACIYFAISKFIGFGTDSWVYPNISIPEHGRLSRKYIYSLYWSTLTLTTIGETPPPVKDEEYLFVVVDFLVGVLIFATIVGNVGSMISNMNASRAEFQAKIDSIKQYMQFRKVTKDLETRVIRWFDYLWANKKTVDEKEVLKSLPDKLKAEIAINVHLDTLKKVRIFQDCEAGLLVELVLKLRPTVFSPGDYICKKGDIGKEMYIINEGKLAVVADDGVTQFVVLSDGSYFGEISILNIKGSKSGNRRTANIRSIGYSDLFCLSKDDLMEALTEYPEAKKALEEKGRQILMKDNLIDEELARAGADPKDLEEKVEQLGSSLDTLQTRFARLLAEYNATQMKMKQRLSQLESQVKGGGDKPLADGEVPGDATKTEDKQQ
T1 sequence (Q9NQW8 1-809): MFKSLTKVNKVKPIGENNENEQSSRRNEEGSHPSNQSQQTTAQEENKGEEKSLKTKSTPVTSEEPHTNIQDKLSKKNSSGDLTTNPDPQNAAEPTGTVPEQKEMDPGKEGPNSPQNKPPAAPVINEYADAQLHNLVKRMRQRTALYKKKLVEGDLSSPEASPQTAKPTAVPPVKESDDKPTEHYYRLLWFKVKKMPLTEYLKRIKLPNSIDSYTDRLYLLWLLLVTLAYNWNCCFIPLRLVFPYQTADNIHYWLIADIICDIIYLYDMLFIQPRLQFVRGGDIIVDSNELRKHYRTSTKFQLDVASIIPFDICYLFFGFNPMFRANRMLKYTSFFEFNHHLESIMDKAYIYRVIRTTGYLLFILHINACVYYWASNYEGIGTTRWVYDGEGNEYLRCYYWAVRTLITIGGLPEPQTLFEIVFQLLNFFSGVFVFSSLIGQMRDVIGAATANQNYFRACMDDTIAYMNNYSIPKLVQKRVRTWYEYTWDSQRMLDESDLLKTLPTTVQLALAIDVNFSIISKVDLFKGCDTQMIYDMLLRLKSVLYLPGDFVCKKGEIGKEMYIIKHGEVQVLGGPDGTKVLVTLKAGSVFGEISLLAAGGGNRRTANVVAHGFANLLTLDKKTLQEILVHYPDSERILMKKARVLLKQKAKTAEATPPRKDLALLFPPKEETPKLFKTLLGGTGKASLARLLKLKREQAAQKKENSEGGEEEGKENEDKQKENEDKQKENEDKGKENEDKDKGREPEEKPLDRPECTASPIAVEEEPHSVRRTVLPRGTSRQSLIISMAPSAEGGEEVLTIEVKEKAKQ
Experiment: Patch-clamp on inside-out patches, heterotetrameric cone CNG channels expressed in Xenopus laevis oocytes
Type: cell-based
Excerpt: The patch pipettes were pulled from borosilicate glass tubing (outer diameter 2.0 mm, inner diameter 1.0 mm; Hilgenberg GmbH, Malsfeld, Germany). The initial resistance of the solution-filled pipettes was 0.6–1.4 MΩ. […] For studying the activation and deactivation kinetics of CNG channels, we performed fast jumps between different ligand concentrations by means of a double-barreled θ-glass pipette mounted on a piezo-driven device, which was controlled by the computer. For measuring the time courses, the recording rate was 20 kHz.
The activation and deactivation time courses were determined by fitting the respective current traces with single exponentials:(3) I(t)=A∗exp[−t/τ] where A is the amplitude, t the time, and τ the time constant for either activation or deactivation.

Row | cone CNG-channel activation (0.1 µM) | potency compared to cGMP, cone channel (higher potency than cGMP) | H (Hill coefficient), cone CNG channels (ligand alone) | EC50 (ligand alone, concentration-activation relationship, Hill fit, read-out: EC50, cone CNG channels) [µM] | Structure (SMILES) | EC50 [µM] | decrease in the apparent affinity of cone CNG channels (50 µM analogue) | H (Hill coefficient), cone CNG channels (cGMP + 50 µM of the cGMP analogue)
1 |  |  |  |  | O=c1c2nc(Br)n([C@@H]3O[C@@H]4CO[P@@](=O)(S)O[C@H]4[C@H]3O)c2nc2[nH]c(-c3ccccc3)cn12 [Rp-8-Br-PET-cGMPS] | 4.4 | ~ 3.2 fold | 1.97
2 | ~ 90% | ~ 138 times | 1.74 | 0.08 | Nc1nc2c(nc(Sc3ccc(Cl)cc3)n2[C@@H]2O[C@@H]3COP(=O)(O)O[C@H]3[C@H]2O)c(=O)[nH]1 [8-pCPT-cGMP] |  |  | 
